Read-outs that look alike come from different tables or passages of the source.
Tests used:
[1] = system: HCV replicon (BB7 sequence) in Huh-7-Clone A cells; experiment: HCV replicon assay: ELISA of NS5A protein in replicon-containing cells (Inhibition of Viral RNA Replication); assay type: cell-based
Summary of the method: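 Huh-7-Clone A cells carrying subgenomic BB7 HCV replicon (G418-selectable) incubated 72 h with compound. NS5A protein quantified by cell ELISA: glutaraldehyde fixation, anti-NS5A monoclonal plus HRP secondary, TMB read at OD 650 nm. EC50 derived from 8-point serial dilution dose curve.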

HCV NS5B = molecular target: T1, HCV NS5B (Hepatitis C virus genotype 1b, UniProt Q9WMX2); experiment: Inhibition of viral RNA-dependent RNA polymerase (RdRp), in vitro biochemical assay; set-up: species or system HCV genotype 1b virus (BB7); conditions: read-out: HCV pol-BB7 IC50
T1 construct: fusion protein, of which the carboxyl terminal 21 amino acids were removed to enhance its solubility; His tag (GSHHHHHH); made in house; host or cells: E. coli
Summary of the method: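 Purified recombinant NS5B from a genotype 1b consensus (BB7), His-tagged, E. coli-expressed, with the C-terminal 21 residues deleted. Inhibition of RdRp activity in vitro was measured, and IC50 is the concentration giving 50% inhibition.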

[2] = Hepatitis C virus, HCV replicon assay, ranges of EC50, read-out: Replicon
[3] = HCV NS5B RdRp, BB7, activity class
[4] = HCV replicon assay, ranges of EC50, read-out: Replicon
[5] = HCV NS5B RdRp, BB7, class symbols A-D
[6] = Hepatitis C virus, ranges of EC50 in HCV replicon assay, read-out: Replicon
[7] = Hepatitis C virus, Huh-7-Clone A, NS5A ELISA, 72-hour incubation, ranges of EC50, read-out: Replicon
[8] = purified His-tagged NS5B (BB7), carboxyl terminal 21 amino acids removed
[9] = Hepatitis C virus, HCV replicon, range of EC50, read-out: Replicon
[10] = HCV NS5B RdRp, BB7, reported as range class
[11] = Hepatitis C virus, HCV replicon assay, ranges of 50% effective concentration (EC50), read-out: Replicon
[12] = HCV NS5B polymerase, BB7 (genotype 1b), values given as range classes A-D

COc1cc2c(C(=O)NC3CC3)c(-c3ccc(F)cc3)oc2cc1-c1c(C)noc1C [Example 380, 6-(3,5-Dimethyl-isoxazol-4-yl)-2-(4-fluoro-phenyl)-5-methoxy-benzofuran-3-carboxylic acid cyclopropylamide]
EC50 [1, 2]: < 1 µM
IC50 (HCV NS5B; [3]): ≤ 500 nM

2-(4-Fluoro-phenyl)-6-(1H-imidazol-2-yl)-5-methoxy-benzofuran-3-carboxylic acid methylamide [Example 296]
EC50 [1, 4]: < 1 µM
IC50 (HCV NS5B; [5]): ≤ 500 nM

CNC(=O)c1c(-c2ccc(F)cc2)oc2cc(N3CCCC(O)C3)c(OC(C)C)cc12 (centres unmarked) [Example 141, 2-(4-Fluoro-phenyl)-6-(3-hydroxy-piperidin-1-yl)-5-isopropoxy-benzofuran-3-carboxylic acid methylamide]
EC50 [1, 6]: < 10 µM
IC50 (HCV NS5B; HCV NS5B RdRp, BB7 genotype 1b): 500 to 5000 nM

CNC(=O)c1c(-c2ccc(F)cc2)oc2cc(C(C)(C)O)c(C)cc12 [Example 300, 2-(4-Fluoro-phenyl)-6-(1-hydroxy-1-methyl-ethyl)-5-methyl-benzofuran-3-carboxylic acid methylamide]
EC50 [1, 2]: < 10 µM
IC50 (HCV NS5B; [5]): ≤ 500 nM

CNC(=O)c1c(-c2ccc(F)cc2)oc2cc(OC)c(OC)cc12 [Example 102, 2-(4-Fluoro-phenyl)-5,6-dimethoxy-benzofuran-3-carboxylic acid methylamide]
EC50 [1, 6]: < 1 µM
IC50 (HCV NS5B; HCV NS5B RdRp, BB7 genotype 1b): ≤ 500 nM

CNC(=O)c1c(-c2ccc(Br)cc2)oc2ccc(OC)cc12 [Example 70, 2-(4-Bromo-phenyl)-5-methoxy-benzofuran-3-carboxylic acid methylamide]
EC50 [1, 7]: < 10 µM
IC50 (HCV NS5B; [8]): ≤ 500 nM

CNC(=O)c1c(-c2ccc(F)cc2)oc2cc(C)c(OC)cc12 [Example 81, 2-(4-Fluoro-phenyl)-5-methoxy-6-methyl-benzofuran-3-carboxylic acid methylamide]
EC50 [1, 7]: < 10 µM
IC50 (HCV NS5B; [8]): ≤ 500 nM

CNC(=O)c1c(-c2ccc(F)cc2)oc2cc(N(C)S(C)(=O)=O)c(OCc3cccc(OC)c3)cc12 [Example 325, 2-(4-Fluoro-phenyl)-6-(methanesulfonyl-methyl-amino)-5-(3-methoxy-benzyloxy)-benzofuran-3-carboxylic acid methylamide]
EC50 [1, 2]: < 1 µM
IC50 (HCV NS5B; [5]): ≤ 500 nM

CCNC(=O)c1c(-c2ccc(F)cc2)oc2cc(NS(C)(=O)=O)c(OC(C)C)cc12 [Example 200, 2-(4-Fluoro-phenyl)-5-isopropoxy-6-methanesulfonylamino-benzofuran-3-carboxylic acid ethylamide]
EC50 [1, 9]: < 1 µM
IC50 (HCV NS5B; [10]): ≤ 500 nM

CNC(=O)c1c(-c2ccc(F)cc2)oc2cc(-c3c(C)noc3C)c(OCc3c(C)noc3C)cc12 [Example 429, 6-(3,5-Dimethyl-isoxazol-4-yl)-5-(3,5-dimethyl-isoxazol-4-ylmethoxy)-2-(4-fluoro-phenyl)-benzofuran-3-carboxylic acid methylamide]
EC50 [1, 11]: < 1 µM
IC50 (HCV NS5B; [12]): ≤ 500 nM

CNC(=O)c1c(-c2ccc(F)cc2)oc2cc(N(C)S(C)(=O)=O)c(OCC(=O)Nc3nccs3)cc12 [Example 415, 2-(4-Fluoro-phenyl)-6-(methanesulfonyl-methyl-amino)-5-(thiazol-2-ylcarbamoylmethoxy)-benzofuran-3-carboxylic acid methylamide]
EC50 [1, 11]: < 1 µM
IC50 (HCV NS5B; [12]): ≤ 500 nM

CCOc1cc(F)ccc1-c1oc2cc(-c3c(C)noc3C)c(OC)cc2c1C(=O)NC [Example 318, 6-(3,5-Dimethyl-isoxazol-4-yl)-2-(2-ethoxy-4-fluoro-phenyl)-5-methoxy-benzofuran-3-carboxylic acid methylamide]
EC50 [1, 2]: > 30 µM
IC50 (HCV NS5B; [5]): ≤ 500 nM

CNC(=O)c1c(-c2ccc(F)cc2)oc2cc(S(=O)(=O)N3CCCC3)c(OC(C)C)cc12 [Example 154, 2-(4-Fluoro-phenyl)-5-isopropoxy-6-(pyrrolidine-1-sulfonyl)-benzofuran-3-carboxylic acid methylamide]
EC50 [1, 6]: < 10 µM
IC50 (HCV NS5B; HCV NS5B RdRp, BB7 genotype 1b): ≤ 500 nM

CNC(=O)c1c(-c2ccc(F)cc2)oc2ccc(OCc3cscn3)cc12 [Example 435, 2-(4-Fluoro-phenyl)-5-(thiazol-4-ylmethoxy)-benzofuran-3-carboxylic acid methylamide]
EC50 [1, 11]: > 30 µM
IC50 (HCV NS5B; [12]): 500 to 5000 nM

CNC(=O)c1c(-c2ccc(F)cc2)oc2cc(N(C)S(C)(=O)=O)c(OCc3ccccc3OC(F)F)cc12 [Example 347, 5-(2-Difluoromethoxy-benzyloxy)-2-(4-fluoro-phenyl)-6-(methanesulfonyl-methyl-amino)-benzofuran-3-carboxylic acid methylamide]
EC50 [1, 2]: < 1 µM
IC50 (HCV NS5B; [3]): ≤ 500 nM

CNC(=O)c1c(-c2ccc(F)cc2)oc2cc(N3CCOCC3)c(OCC(C)O)cc12 (centres unmarked) [Example 252, 2-(4-Fluoro-phenyl)-5-(2-hydroxy-propoxy)-6-morpholin-4-yl-benzofuran-3-carboxylic acid methylamide]
EC50 [1, 2]: < 10 µM
IC50 (HCV NS5B; [5]): 500 to 5000 nM

CNC(=O)c1c(-c2ccc(F)cc2)oc2cc(-c3noc(C)n3)c(OC(C)C)cc12 [Example 198, 2-(4-Fluoro-phenyl)-5-isopropoxy-6-(5-methyl-[1,2,4]oxadiazol-3-yl)-benzofuran-3-carboxylic acid methylamide]
EC50 [1, 9]: < 1 µM
IC50 (HCV NS5B; [10]): ≤ 500 nM

CNC(=O)COc1cc2c(C(=O)NC)c(-c3ccc(F)cc3)oc2cc1N(C)S(C)(=O)=O [Example 421, 2-(4-Fluoro-phenyl)-6-(methanesulfonyl-methyl-amino)-5-methylcarbamoyl-methoxy-benzofuran-3-carboxylic acid methylamide]
EC50 ([1]; HCV replicon assay, ranges of 50% effective concentration (EC50), read-out: Replicon): < 1 µM
IC50 (HCV NS5B; [12]): ≤ 500 nM

CNC(=O)c1c(-c2ccc(F)cc2)oc2cc(OCc3ccccc3)c(OCc3ccccc3)cc12 [Example 183, 5,6-Bis-benzyloxy-2-(4-fluoro-phenyl)-benzofuran-3-carboxylic acid methylamide]
EC50 [1, 9]: < 10 µM
IC50 (HCV NS5B; [10]): > 30000 nM

CNC(=O)c1c(-c2ccoc2)oc2ccc(OC)cc12 [Example 1, 2-Furan-3-yl-5-methoxy-benzofuran-3-carboxylic acid methylamide]
EC50 ([1]; Hepatitis C virus, 72 h, read-out: Replicon (μM)): < 30 µM
IC50 (HCV NS5B; [8]): 500 to 5000 nM

CNC(=O)c1c(-c2ccc(F)cc2)oc2cc(N3CCOCC3)c(OCc3nccn3Cc3ccccc3)cc12 [Example 216, 5-(1-Benzyl-1H-imidazol-2-ylmethoxy)-2-(4-fluoro-phenyl)-6-morpholin-4-yl-benzofuran-3-carboxylic acid methylamide]
EC50 [1, 9]: < 1 µM
IC50 (HCV NS5B; [10]): ≤ 500 nM

CNC(=O)c1c(-c2ccc(F)cc2)oc2cc(S(=O)(=O)NC3CCC3)c(OC(C)C)cc12 [Example 150, 6-Cyclobutylsulfamoyl-2-(4-fluoro-phenyl)-5-isopropoxy-benzofuran-3-carboxylic acid methylamide]
EC50 [1, 6]: < 30 µM
IC50 (HCV NS5B; HCV NS5B RdRp, BB7 genotype 1b): 500 to 5000 nM

CNC(=O)c1c(-c2ccc(F)cc2)oc2cc(N3CCN(C(N)=O)CC3)c(OC(C)C)cc12 [Example 185, [2-(4-Fluoro-phenyl)-5-isopropoxy-3-methylcarbamoyl-benzofuran-6-yl]-piperazine-1-carboxylic acid amide]
EC50 ([1]; HCV replicon, range of EC50, read-out: Replicon): < 10 µM
IC50 (HCV NS5B; [10]): 5000 to 30000 nM

CNC(=O)c1c(-c2ccc(F)cc2)oc2cc(N(CCOC(F)(F)F)S(C)(=O)=O)c(OC)cc12 [Example 316, 2-(4-Fluoro-phenyl)-6-[methanesulfonyl-(2-trifluoromethoxy-ethyl)-amino]-5-methoxy-benzofuran-3-carboxylic acid methylamide]
EC50 [1, 2]: < 1 µM
IC50 (HCV NS5B; [5]): 500 to 5000 nM

CNC(=O)c1c(-c2ccc(F)cc2)oc2cc(N(C)S(C)(=O)=O)c(OCc3ccc(C(=O)O)cc3)cc12 [Example 311, 4-[2-(4-Fluoro-phenyl)-6-(methanesulfonyl-methyl-amino)-3-methylcarbamoyl-benzofuran-5-yloxymethyl]-benzoic acid]
EC50 [1, 2]: < 10 µM
IC50 (HCV NS5B; [5]): ≤ 500 nM

2-(4-Fluoro-phenyl)-5-methoxy-6-(2H-[1,2,4]triazol-3-yl)-benzofuran-3-carboxylic acid methylamide [Example 358]
EC50 [1, 4]: < 1 µM
IC50 (HCV NS5B; [3]): ≤ 500 nM

CNC(=O)c1c(-c2ccc(F)cc2)oc2cc(N3CCOCC3)c(OCc3csc(C)n3)cc12 [Example 201, 2-(4-Fluoro-phenyl)-5-(2-methyl-thiazol-4-ylmethoxy)-6-morpholin-4-yl-benzofuran-3-carboxylic acid methylamide]
EC50 [1, 9]: < 1 µM
IC50 (HCV NS5B; [10]): ≤ 500 nM

CNC(=O)c1c(-c2ccc(F)cc2)oc2cc(N(C)S(C)(=O)=O)c(OCc3ncc[nH]3)cc12 [Example 405, 2-(4-Fluoro-phenyl)-5-(1H-imidazol-2-ylmethoxy)-6-(methanesulfonyl-methyl-amino)-benzofuran-3-carboxylic acid methylamide]
EC50 [1, 11]: < 1 µM
IC50 (HCV NS5B; [12]): ≤ 500 nM

Reference: patent US7265152B2 (ViroPharma Incorporated, priority 2002, dated 2007)
